Values of other authors in paper PMC6278306, “Anti-Leishmanial and Cytotoxic Activities of a Series of Maleimides: Synthesis, Biological Evaluation and Structure-Activity Relationship” (Molecules, 2018).

Tested on: 10 fungi
Design: method as in PMID 21481593
Settings: against 10 fungi; cited from earlier work

| SMILES | MIC |
| --- | --- |
| O=C1C=CC(=O)N1CCCCc1ccccc1 [N-(4-phenylbutyl)-maleimide] | 0.48 to 15.63 µg/mL |
| CCCCN1C(=O)C=CC1=O [N-butyl-maleimide] | 0.48 to 15.63 µg/mL |
